“And” between values parts separate entries of the source, which are not always exact repeats. Equal values may be shown once. Peptide text beside a SMILES is read from it.
Key:
[1] = target: T1, recombinant p24 (viral capsid protein) (Human immunodeficiency virus type 1 group M subtype B, UniProt P04591); assay: dialysis-based binding assay with 14C-GPG-NH2; design: species or system HIV-1
T1 construct: AIDS program, NCIB (gift)
Description: (§1) To determine whether the peptide agents listed in Table 1 bound to the viral capsid protein p24, an in vitro binding assay was performed. As described previously, a dialysis-based binding assay was conducted using a dialysis membrane with a pore size of less than 10 kD. (Slide-A-Lyzer, Pierce). Fifty microliters of a 10 μM stock of the recombinant proteins p24, gp120 (gifts from the AIDS program, NCIB) and BSA (Sigma) were introduced into separate dialysis membranes and the proteins were dialyzed at 4° C. for 2 days against a 500 ml solution composed of 150 mM NaCl and 50 mM Tris-HCl, pH 7.4 buffer, and 27.5 μM of ^14C-GPG-NH2 (Amersham Ltd. UK). Subsequently, ten or five microliter aliquots of the dialyzed p24, gp 120, and BSA were removed and mixed with 3 ml of ReadySafe (Beckman) in a scintillation vial. The C^14 was then detected by scintillation counting.
(§2) In Table 2, the results from a representative dialysis-based binding assay are provided. […] The amount of radioactive GPG-NH2 associated with p24 was 7.5 times greater than that present in the buffer.

HIV-1 = conditions: summary of Experiments 1-6
Description: (§3) Next, the ability of peptide agents to inhibit viral infection was evaluated. Accordingly, the peptide agents listed in Table 1 were used in several viral (e.g., HIV-1, HIV-2, and SIV) infection assays. […] Once inhibitory tripeptides were identified, more specific assays were conducted to determine the effect of varying concentrations of the selected tripeptides and combination treatments (e.g., the use of more than one modified tripeptide in combination).

BSA = target: T2, BSA (Bos taurus, UniProt P02769); assay: dialysis-based binding assay with 14C-GPG-NH2
T2 construct: purchased Sigma
Description: as §1, §2

HIV-1 SF-2 virus = assay: electron microscopy of HIV-1 particles from infected HUT78 cells; format: cell-based; conditions: 1 μM or 10 μM added 3, 5 or 7 days post infection; cells fixed day 14
Description: Evidence that peptide agents inhibit or prevent viral capsid protein polymerization and, thus, proper nucleocapsid assembly was obtained by performing electron microscopy on HIV-1 particles that were contacted with a modified small peptide. In this set of experiments, HUT78 cells were infected with HIV-1 SF-2 virus at 300TCID50 for 1 hr at 37° C. Subsequently, the infected cells were washed and pelleted 3 times. […] GPG-NH2 was then added into the cell cultures 3, 5 or 7 days post infection at concentration of 1 μm or 10 μM. A control sample was administered 0.5 μM Ritonavir (a protease inhibitor). The cells were cultured until day 14, at which point, the cells were fixed in 2.5% glutaraldehyde by conventional means. The fixed cells were then post-fixed in 1% OSO4 and were dehydrated, embedded with epoxy resins, and the blocks were allowed to polymerize. Epon sections of virus infected cells were made approximately 60-80 nm thin in order to accommodate the width of the nucleocapsid. The sections were mounted to grids stained with 1.0% uranyl acetate and were analyzed in a Zeiss CEM 902 microscope at an accelerating voltage of 80 kV. The microscope was equipped with a spectrometer to improve image quality and a liquid nitrogen cooling trap was used to reduce beam damage. The grids having sections of control and GPG-NH2 incubated cells were examined in several blind studies.
(See FIG. 1). […]

recombinant gp120 = target: T3, recombinant gp120 (Human immunodeficiency virus type 1 group M subtype B, UniProt P03375); assay: dialysis-based binding assay with 14C-GPG-NH2
T3 construct: recombinant proteins p24, gp120 (gifts from the AIDS program, NCIB); AIDS program, NCIB (gift)
Description: To determine whether the peptide agents listed in Table 1 bound to the viral capsid protein p24, an in vitro binding assay was performed. As described previously, a dialysis-based binding assay was conducted using a dialysis membrane with a pore size of less than 10 kD. (Slide-A-Lyzer, Pierce). […] Subsequently, ten or five microliter aliquots of the dialyzed p24, gp 120, and BSA were removed and mixed with 3 ml of ReadySafe (Beckman) in a scintillation vial. The C^14 was then detected by scintillation counting.

HIV-2 = assay: viral infection assay in H9 cells, reverse transcriptase (RT) activity in supernatant; format: cell-based; conditions: summary of the experiments in H9 cells
Description: as §3
(§4) To monitor the replication of virus, reverse transcriptase (RT) activity in the supernatants was assayed using a commercially available Lenti-RT activity kit. (Cavidi Tech, Uppsala, Sweden). The amount of RT was determined with the aid of a regression line of standards. […] Syncytium formation was also monitored by microscopic examination.
(§5) (Cavidi Tech). The amount of RT was determined with the aid of a regression line of standards.

SIV = assay: as above; format: cell-based; conditions: summary of the experiments in H9 cells
Description: as §3, §4, §5

[2] = target: major capsid protein (p24) of HIV-1 (HIV-1) (UniProt P04591)
[3] = target: major capsid protein (p24) of HIV-1 (HIV-1) (UniProt P04591); remark: listed apart in the source
[4] = target: viral capsid protein (p24) of SIV (SIV)
[5] = target: viral capsid protein (p24) of HIV-2 (HIV-2)
[6] = target: major capsid protein (p24) of HIV-1 (HIV-1) (UniProt P04591); remark: listed apart in the source
[7] = 27.5 μM 14C-GPG-NH2, dialysis 4° C. 2 days, dialysis buffer 1.816
[8] = radioactivity relative to dialysis buffer

## NCC(=O)N1CCC[C@H]1C(=O)NCC(N)=O [GPG-NH2, glycyl-prolyl-glycine amide] (H-Gly-Pro-Gly-NH2)
[1]; [7]
  μCi/ml, sample p24: 13.712 μCi/ml
[1]; [8]
  times buffer, sample p24: 7.5 times buffer and 7.551 times buffer
HIV-1
  effect on HIV-1 infection, in words: inhibited and/or prevented HIV-1 infection
BSA; [7]
  μCi/ml, sample BSA: 1.674 μCi/ml
BSA; in words
  radioactive GPG-NH2 associated with BSA over the amount in the dialysis buffer: no appreciable amount
BSA; [8]
  times buffer, sample BSA: 0.922 times buffer
HIV-1 SF-2 virus
  capsid/nucleocapsid morphology of HIV-1 particles: discernable capsid structures that are distinct from the Ritonavir-treated particles
Recombinant gp120; [7]
  μCi/ml, sample gp120: 1.745 μCi/ml
Recombinant gp120; in words
  radioactive GPG-NH2 associated with gp120 over the amount in the dialysis buffer: no appreciable amount
Recombinant gp120; [8]
  times buffer, sample gp120: 0.961 times buffer
HIV-2
  effect on HIV-2 infection, in words: inhibit or prevent HIV-2 and SIV infection
SIV
  effect on SIV infection, in words: inhibit or prevent HIV-2 and SIV infection

## GPG-NH2 + GKG-NH2 + CQG-NH2 (pool or library)
[2]
  p24 in the supernatants of infected H9 cells, Day 14 HIV-1, reduction (%): 100%

## Gly-Pro-Gly-NH2 (peptide)
[3]
  p24 production of infected HUT78 cells (HIV-1 p24 ELISA), Day 7 HIV-1, reduction (%), peptide at 100 µM: 97%
[4]
  reverse transcriptase (RT) activity in the supernatants, Day 10 RT (OD): 0.103 OD
[5]
  reverse transcriptase (RT) activity in the supernatants, Day 10 RT (OD): 0.145 OD
[6]
  reverse transcriptase (RT) activity in the supernatants, Day 10 RT (OD): 0.074 OD
